# Biological target: KRasG12C (M1-K169, biotinylated on the N-terminus) (Homo sapiens (Human), UniProt P01116, G12C)
# Assay: Covalent competition assay (scintillation proximity assay, competition with radiolabeled covalent probe Compound B)
# Assay type: binding
# Conditions: in vitro KRASG12C activity; 10 nM KRasG12C:GDP, 25 nM radio-ligand and 475 nM unlabelled ligand, incubated 2 hours; read-out: Covalent Competition Assay IC50
# Protocol: The cells were lysed by 4 passages through an Avestin Emulsiflex at about 20000 psi and insoluble debris removed by centrifugation and filtered through a 0.45 μm Durapore membrane (Millipore). […] The protein in the flow through was subjected to a final polishing step on a HiLoad 16/60 Superdex 200 prep grade size-exclusion column pre-equilibrated with SEC-buffer (20 mM HEPES pH 7.4, 150 mM NaCl, 5 mM MgCl2, 1 μM GDP).
# A scintillation proximity assay (SPA) was used to determine the potency of the compounds. This assay measures the ability of the test compound to compete with the radiolabeled covalent probe for binding to and covalently modify KRASG12C.
# A serial dilution of the compounds to be tested is mixed with a fixed concentration of the radiolabeled covalent probe before incubation with KRASG12C:GDP as described below.
# The reaction was started by addition of KRasG12C (M1-K169, biotinylated on the N-terminus) to the compounds and incubated for 2 hours with continuous agitation allowing for full modification of KRasG12C with probe or test compounds. […] The assay buffer contained 20 mM Tris-HCl pH 7.5 (Invitrogen), 150 mM NaCl (Sigma Aldrich), 0.1 mM MgCl2 (Sigma Aldrich), and 0.01% Tween-20 (Sigma Aldrich).
# Evaluation was carried out using assay data analysis software (such as the standard Novartis in-house Helios software application, Novartis Institutes for BioMedical Research, unpublished) using the methods described in Formenko et al., Robust Regression for high-throughput screening.
# Evaluation can also be carried out using commercially available software which is designed to derive IC50 values using 4-parameter fits (e.g. GraphPad Prism, XL fit).
row,Compound,IC50
1,"C=CC(=O)N1CC2(CC(n3nc(-c4ccc5c(c4)CCN5CCOC)c(-c4c(Cl)c(C)cc5[nH]ncc45)c3C)C2)C1 (single isomer, unassigned) [Example 44a]",0.019 µM
2,"C=CC(=O)N1CC2(CC(n3nc(-c4ccc5c(c4)CCN5CCOC)c(-c4c(Cl)c(C)cc5[nH]ncc45)c3C)C2)C1 (single isomer, unassigned) [Example 44b]",> 5 µM
3,"C=CC(=O)N1CC2(CC(n3nc(-c4ccnn4CC4CC4)c(-c4c(Cl)c(C)cc5[nH]ncc45)c3C)C2)C1 (single isomer, unassigned) [Example 45a, 1-(6-(4-(5-chloro-6-methyl-1H-indazol-4-yl)-2′-(cyclopropylmethyl)-5-methyl-1H,2′H-[3,3′-bipyrazol]-1-yl)-2-azaspiro[3.3]heptan-2-yl)prop-2-en-1-one]",0.235 µM
4,"C=CC(=O)N1CC2(CC(n3nc(-c4ccnn4CC4CC4)c(-c4c(Cl)c(C)cc5[nH]ncc45)c3C)C2)C1 (single isomer, unassigned) [Example 45b, 1-(6-(4-(5-chloro-6-methyl-1H-indazol-4-yl)-2′-(cyclopropylmethyl)-5-methyl-1H,2′H-[3,3′-bipyrazol]-1-yl)-2-azaspiro[3.3]heptan-2-yl)prop-2-en-1-one]",> 50 µM
5,"C=CC(=O)N1CC2(CC(n3nc(-c4ccccn4)c(-c4c(Cl)c(C)cc5[nH]ncc45)c3C)C2)C1 (single isomer, unassigned) [Example 46a, 1-(6-(4-(5-chloro-6-methyl-1H-indazol-4-yl)-5-methyl-3-(pyridin-2-yl)-1H-pyrazol-1-yl)-2-azaspiro[3.3]heptan-2-yl)prop-2-en-1-one]",0.423 µM
6,"C=CC(=O)N1CC2(CC(n3nc(-c4ccccn4)c(-c4c(Cl)c(C)cc5[nH]ncc45)c3C)C2)C1 (single isomer, unassigned) [Example 46b, 1-(6-(4-(5-chloro-6-methyl-1H-indazol-4-yl)-5-methyl-3-(pyridin-2-yl)-1H-pyrazol-1-yl)-2-azaspiro[3.3]heptan-2-yl)prop-2-en-1-one]",> 50 µM
7,"C=CC(=O)N1CC2(CC(n3nc(-c4ccc(CO)cc4)c(-c4c(Cl)c(C)cc5[nH]ncc45)c3C)C2)C1 (single isomer, unassigned) [Example 47a, 1-(6-{(4M)-4-(5-Chloro-6-methyl-1H-indazol-4-yl)-3-[4-(hydroxymethyl)phenyl]-5-methyl-1H-pyrazol-1-yl}-2-azaspiro[3.3]heptan-2-yl)prop-2-en-1-one]",0.043 µM
8,"C=CC(=O)N1CC2(CC(n3nc(-c4ccc(CO)cc4)c(-c4c(Cl)c(C)cc5[nH]ncc45)c3C)C2)C1 (single isomer, unassigned) [Example 47b, 1-(6-(4-(5-chloro-6-methyl-1H-indazol-4-yl)-3-(4-(hydroxymethyl)phenyl)-5-methyl-1H-pyrazol-1-yl)-2-azaspiro[3.3]heptan-2-yl)prop-2-en-1-one]",23.4 µM
9,"C=CC(=O)N1CC2(CC(n3nc(-c4ccncc4C)c(-c4c(Cl)c(C)cc5[nH]ncc45)c3C)C2)C1 (single isomer, unassigned) [Example 49a, 1-(6-(4-(5-chloro-6-methyl-1H-indazol-4-yl)-5-methyl-3-(3-methylpyridin-4-yl)-1H-pyrazol-1-yl)-2-azaspiro[3.3]heptan-2-yl)prop-2-en-1-one]",0.227 µM
10,"C=CC(=O)N1CC2(CC(n3nc(-c4ccncc4C)c(-c4c(Cl)c(C)cc5[nH]ncc45)c3C)C2)C1 (single isomer, unassigned) [Example 49b, 1-(6-(4-(5-chloro-6-methyl-1H-indazol-4-yl)-5-methyl-3-(3-methylpyridin-4-yl)-1H-pyrazol-1-yl)-2-azaspiro[3.3]heptan-2-yl)prop-2-en-1-one]",5.38 µM
11,"C=CC(=O)N1CC2(CC(n3nc(-c4ccc(N5CCS(=O)(=O)CC5)cc4)c(-c4c(Cl)c(C)cc5[nH]ncc45)c3C)C2)C1 (single isomer, unassigned) [Example 50a, 1-(6-(4-(5-chloro-6-methyl-1H-indazol-4-yl)-3-(4-(1,1-dioxidothiomorpholino)phenyl)-5-methyl-1H-pyrazol-1-yl)-2-azaspiro[3.3]heptan-2-yl)prop-2-en-1-one]",0.035 µM
12,"C=CC(=O)N1CC2(CC(n3nc(-c4ccc(N5CCS(=O)(=O)CC5)cc4)c(-c4c(Cl)c(C)cc5[nH]ncc45)c3C)C2)C1 (single isomer, unassigned) [Example 50b, 1-(6-(4-(5-chloro-6-methyl-1H-indazol-4-yl)-3-(4-(1,1-dioxidothiomorpholino)phenyl)-5-methyl-1H-pyrazol-1-yl)-2-azaspiro[3.3]heptan-2-yl)prop-2-en-1-one]",4.24 µM
13,"C=CC(=O)N1CC2(CC(n3nc(-c4cscn4)c(-c4c(Cl)c(C)cc5[nH]ncc45)c3C)C2)C1 (single isomer, unassigned) [Example 51a, 1-(6-(4-(5-chloro-6-methyl-1H-indazol-4-yl)-5-methyl-3-(thiazol-4-yl)-1H-pyrazol-1-yl)-2-azaspiro[3.3]heptan-2-yl)prop-2-en-1-one]",0.465 µM
14,"C=CC(=O)N1CC2(CC(n3nc(-c4cscn4)c(-c4c(Cl)c(C)cc5[nH]ncc45)c3C)C2)C1 (single isomer, unassigned) [Example 51b, 1-(6-(4-(5-chloro-6-methyl-1H-indazol-4-yl)-5-methyl-3-(thiazol-4-yl)-1H-pyrazol-1-yl)-2-azaspiro[3.3]heptan-2-yl)prop-2-en-1-one]",36.1 µM

# The next lines start with the values.
row,IC50,Compound
1,0.36 µM,"C=CC(=O)N1CC2(CC(n3nc(-c4ccc5c(c4)C(=O)OC5)c(-c4c(Cl)c(C)cc5[nH]ncc45)c3C)C2)C1 (single isomer, unassigned) [Example 54a]"
2,> 50 µM,"C=CC(=O)N1CC2(CC(n3nc(-c4ccc5c(c4)C(=O)OC5)c(-c4c(Cl)c(C)cc5[nH]ncc45)c3C)C2)C1 (single isomer, unassigned) [Example 54b]"
3,0.033 µM,"C=CC(=O)N1CC2(CC(n3nc(-c4ccc(O)cc4)c(-c4c(Cl)c(C)cc5[nH]ncc45)c3C)C2)C1 (single isomer, unassigned) [Example 57a]"
4,3.2 µM,"C=CC(=O)N1CC2(CC(n3nc(-c4ccc(O)cc4)c(-c4c(Cl)c(C)cc5[nH]ncc45)c3C)C2)C1 (single isomer, unassigned) [Example 57b]"
5,0.064 µM,"C=CC(=O)N1CC2(CC(n3nc(-c4ccc(O)cc4F)c(-c4c(Cl)c(C)cc5[nH]ncc45)c3C)C2)C1 (single isomer, unassigned) [Example 58a]"
6,> 5 µM,"C=CC(=O)N1CC2(CC(n3nc(-c4ccc(O)cc4F)c(-c4c(Cl)c(C)cc5[nH]ncc45)c3C)C2)C1 (single isomer, unassigned) [Example 58b]"
7,0.173 µM,"C=CC(=O)N1CC2(CC(n3nc(-c4cc5ccncc5[nH]4)c(-c4c(Cl)c(C)cc5[nH]ncc45)c3C)C2)C1 (single isomer, unassigned) [Example 59a, 1-(6-(4-(5-chloro-6-methyl-1H-indazol-4-yl)-5-methyl-3-(1H-pyrrolo[2,3-c]pyridin-2-yl)-1H-pyrazol-1-yl)-2-azaspiro[3.3]heptan-2-yl)prop-2-en-1-one]"
8,> 50 µM,"C=CC(=O)N1CC2(CC(n3nc(-c4cc5ccncc5[nH]4)c(-c4c(Cl)c(C)cc5[nH]ncc45)c3C)C2)C1 (single isomer, unassigned) [Example 59b, 1-(6-(4-(5-chloro-6-methyl-1H-indazol-4-yl)-5-methyl-3-(1H-pyrrolo[2,3-c]pyridin-2-yl)-1H-pyrazol-1-yl)-2-azaspiro[3.3]heptan-2-yl)prop-2-en-1-one]"

# Source: patent publication US11702409B2, “Pyrazolyl derivatives useful as anti-cancer agents” (NOVARTIS AG, priority 2019, dated 2023)
